Reference: the METLIN SMRT retention time set (Domingo-Almenara et al. 2019)

Assay: gradient 5% acetonitrile 3 min, to 50% in 2 min, to 85% in 15 min, held 3 min, 100 µL/min
Details: column: Zorbax Extend-C18 2.1 x 50 mm; eluents: water / acetonitrile, 0.1% formic acid
Method in brief: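 Mixtures of ~100 pure standards were chromatographed on a Zorbax Extend-C18 column (2.1 × 50 mm, 1.8 μm) at 100 μL/min using water and acetonitrile, each with 0.1% formic acid. Detection used a quadrupole time-of-flight mass spectrometer in positive and negative ionization mode, and data collection spanned 3 months. Retention time was obtained from adduct peaks picked computationally and each checked manually.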

Compared with Cc1nc(-c2nnn(-c3ccccc3)c2C)sc1C(=O)NCCc1cccs1, Cc1cncn(CC(=O)NCc2cccs2)c1=O is lower in RP-LC retention time: 936 s for the first, 580 s for the second.

Going from CC(=O)N1CCc2cc(-c3ccc(C(=O)NCc4ccccn4)cc3)ccc21 to CCOCCCNC(=O)Nc1ccc2c(c1)CCN2S(=O)(=O)c1ccccc1, the RP-LC retention time rises from 584 s to 803 s.

Compared with CC(C)(C)c1ccc(C(=O)Nc2cnc(N3CCOCC3)nc2)cc1, Cc1ccn2cc(C(=O)NCc3ccc(N4CCOCC4)cc3)nc2c1 is lower in RP-LC retention time: 923 s for the first, 591 s for the second.

Compared with Cc1ccc(CNC(=O)CN2C(=O)CCc3cc(S(=O)(=O)N4CCCCC4C)ccc32)cc1 (stereo not given), Cc1ccc(CNS(=O)(=O)c2ccc(-c3c(C)noc3C)cc2)cc1 is higher in RP-LC retention time: 916 s for the first, 996 s for the second.

Going from N#Cc1cccc(-c2cn3c(n2)N(C(=O)c2ccncc2)CCC3)c1 to Cc1ccc(C(=O)N2CCC(c3nc(-c4ccncc4)n[nH]3)CC2)s1, the RP-LC retention time falls from 611 s to 597 s.

Going from CCOc1cc2c(cc1OCC)C1C(C(=O)NCCCN3CCCC3)c3ccccc3C(=O)N1CC2 (stereo not given) to CCOc1ccc(S(=O)(=O)N2CCC(C(=O)N3CCc4ccccc4C3)CC2)cc1, the RP-LC retention time rises from 624 s to 985 s.

Compared with O=C(Cc1ccccc1F)NC(c1ccccc1)c1nnc(N2CCCC2)o1 (stereo not given), O=C(CN1CCC2(CC1)N=C(c1ccccc1)C(=O)N2)Nc1cccc(Br)c1 is lower in RP-LC retention time: 784 s for the first, 687 s for the second.

First: COc1ccc(-c2nc3cnccn3c2NCCC(=O)N2CCN(C(C)C)CC2)cc1
Second: Cc1nc2cccnc2n1CCN1CCN(C(=O)Nc2ccc(F)cc2)CC1
The RP-LC retention time of the first is lower: 565 s for the first, 584 s for the second.

Compared with O=C(NCC1CCOCC1)Nc1ccc(C(F)(F)F)cc1, CCCNC(=O)C1CCCN(c2ccc(SCC(=O)Nc3ccc(OC)cc3)nn2)C1 (stereo not given) is lower in RP-LC retention time: 734 s for the first, 647 s for the second.

Compared with COCC(=O)NCC12CCCC=C1NC(=O)CC2 (stereo not given), COCCOC1CCOC2(CCN(S(=O)(=O)c3cccc(OC)c3)CC2)C1 (stereo not given) is higher in RP-LC retention time: 605 s for the first, 818 s for the second.

First: O=C(C1CCN(c2nc3ccc(-c4cccs4)nc3s2)CC1)N1CCCC1
Second: CC(C)CC(=O)Nc1ccc(-n2cnc(C(=O)N3CCN(C4CCCCC4)CC3)c2)nc1
The RP-LC retention time of the first is higher: 893 s for the first, 620 s for the second.

Going from COc1c(C(=O)N2CCN(c3ccccc3F)CC2)sc2cccc(F)c12 to Cc1cc(C(=O)Nc2ccc3nc(N4CCN(C)CC4)cc(C)c3c2)ccc1[N+](=O)[O-], the RP-LC retention time falls from 1100 s to 595 s.

Going from CN(C(=O)CN1C(=O)NC2(CCC(C(C)(C)C)CC2)C1=O)c1ccccc1 (stereo not given) to Cc1ccc(C)c(S(=O)(=O)N2CCC(C)(C(=O)NCc3ccccc3C)CC2)c1, the RP-LC retention time rises from 979 s to 1050 s.

Compared with CN(C)C(=O)c1ccc2c(c1)nnn2CCNC(=O)Nc1ccccc1F, COC(=O)c1ccccc1NC(=O)NCc1nc(-c2ccccc2)oc1C is higher in RP-LC retention time: 638 s for the first, 964 s for the second.

Compared with COc1ccc(-c2cc3nn(CC(=O)Nc4cccc(OC)c4)c(=O)n3c(C)n2)cc1, COc1ccc(OC)c(CNC(=O)c2nnc(-c3ccc(S(=O)(=O)N(C)C)cc3)o2)c1 is higher in RP-LC retention time: 681 s for the first, 854 s for the second.

First: Cc1ccc(CN2CC(COc3cccnc3)C3(CCOCC3)C2)c(C)c1 (stereo not given)
Second: CCN(CC)c1ccc(-c2noc(CN3CCN(c4cccc(C)c4)CC3)n2)cn1
The RP-LC retention time of the first is lower: 591 s for the first, 865 s for the second.

Compared with CCC(=O)NCc1nc2c(n1CC)CN(C(=O)c1ccc(Br)cc1)CC2, COc1cccc(CNC(=O)C2CCCN(c3ccc(-c4nc(C)no4)cn3)C2)c1OC (stereo not given) is higher in RP-LC retention time: 606 s for the first, 753 s for the second.

Compared with O=C(NCCc1ccc(Cl)cc1)C(=O)Nc1ccon1, Cc1oc2ccn(Cc3ccc(F)cc3)c(=O)c2c1C(=O)NCCN(C)C1CCCCC1 is lower in RP-LC retention time: 772 s for the first, 762 s for the second.

Compared with C=CCn1c(SCC#CCO)nc2ccccc2c1=O, Cc1cc2c(c(=O)n(-c3ccccc3)c(=O)n2CC(=O)Nc2ccc(Cl)cc2F)n1C is higher in RP-LC retention time: 744 s for the first, 873 s for the second.

Compared with CN(C)[C@@H]1CN(Cc2ccc(Br)o2)CC[C@@H]1CNC(=O)C1CC1, Cc1cc(C2CCCN2C(=O)NC(C)(C)C)no1 (stereo not given) is higher in RP-LC retention time: 574 s for the first, 752 s for the second.

Going from CCCCN(C)C(=O)Cn1nc2c3cc(-c4cc(C)ccc4C)nn3ccn2c1=O to Cc1cc(CNC(=O)c2cc3ccccc3o2)c(C)o1, the RP-LC retention time falls from 973 s to 852 s.

First: COc1cc(OC)c(NC(=O)COc2cc(C)nc(N3CCCCCC3)n2)cc1Cl
Second: Cc1oc2ccn(Cc3cccc(F)c3)c(=O)c2c1C(=O)NCc1cc(F)cc(F)c1
The RP-LC retention time of the first is lower: 659 s for the first, 1130 s for the second.

In the case of CC(C)(C)c1ccc(NS(=O)(=O)c2ccc(N)cc2)cc1, the RP-LC retention time is reported as 971 s.
